Common to all, as to format: physicochemical
Series [1] can be described thus: re-analysis of example batches after storage (KF, LOD). How it is done: (§1) Determination of water content in the product based on a specific oxidation-reduction reaction between the water present in the sample and the Karl Fischer reagent.
(§2) About 200 mg of the 2′-FL were weighed into the appropriate container, the balance was set to zero and the substance transferred into the previously dehydrated cell. The empty container was placed on the pan of the balance to determine the exact value of the substance transferred into the cell. Set the measured weight into the formula: % H2O=V×T×F/PC
(§3) Gravimetric method with heating of the sample using a halogen lamp

Series [2] is described as follows: accelerated stability of Polymorph A, water content by Karl-Fischer over time. As to conditions: accelerated stability (75 ± 5% RH). How it is done:
as §1, §2

Series [3] in a line: stability studies of Polymorph A (accelerated and 25°C/60% RH): KF, loss on drying, XRPD after storage. The settings on record: 40°±2° C., 75±5% RH and 25°±2° C., 60±5% RH. How it is done: In particular Polymorph A, was subjected to studies of stability both accelerated at 40°±2° C.; 75±5% RH and at 25°±2° C., 60±5% RH.
In particular, the percentage of water takes values between 5% and 7%, preferably between 5.5% and 6.5%, still more preferably between 5.7% and 6.2% (See Table 1).
as §1, §3

Consider `C[C@@H]1OC(O[C@H]2[C@H](O[C@H]3[C@H](O)[C@@H](O)C(O)O[C@@H]3CO)O[C@H](CO)[C@H](O)[C@@H]2O)[C@@H](O)[C@H](O)[C@@H]1O` (mixture of isomers) [Example 4, 2′-O-fucosyllactose], for which, in series [1] (after 6 months), the “KF after 6 months” value stood at 6.00%. In addition, in series [1] (after 6 months, LOD Method 2), the “LOD after 6 months (Method 2)” value stood at 2.17%.

For the compound `C[C@@H]1OC(O[C@H]2[C@H](O[C@H]3[C@H](O)[C@@H](O)C(O)O[C@@H]3CO)O[C@H](CO)[C@H](O)[C@@H]2O)[C@@H](O)[C@H](O)[C@@H]1O` (mixture of isomers) [Example 19, 2′-O-fucosyllactose], in series [1] (after 2 months), the “KF after 2 months” value is listed as 0.34%.

Regarding `C[C@@H]1OC(O[C@H]2[C@H](O[C@H]3[C@H](O)[C@@H](O)C(O)O[C@@H]3CO)O[C@H](CO)[C@H](O)[C@@H]2O)[C@@H](O)[C@H](O)[C@@H]1O` (mixture of isomers) [Example 21, 2′-O-fucosyllactose], in series [1] (after 10 days in a petri dish), the “KF after 10 days in a petri dish” value is 0.67%.

On to `C[C@@H]1OC(O[C@H]2[C@H](O[C@H]3[C@H](O)[C@@H](O)C(O)O[C@@H]3CO)O[C@H](CO)[C@H](O)[C@@H]2O)[C@@H](O)[C@H](O)[C@@H]1O` (mixture of isomers) [Polymorph A, 2′-O-fucosyllactose], for which the KF % in series [2] (time 0 months) is reported as 4.2%; in series [2] (time 1 month) it was 6.0%; in series [2] (time 2 months), 6.0%; in series [2] (time 3 months), 5.7%; in series [2] (time 4 months), 5.9%; in series [2] (time 5 months), 6.0%. In addition, in series [2] (time 6 months), the KF % came to 6.0%. The “XRPD spectrum of stored samples (crystal form retention)” value in series [3] is given as “continues to show the characteristic peaks of Polymorph A”. Also, the “humidity uptake in stability studies (KF trend)” value in series [3] (1-3 months) was “tends to adsorb humidity immediately”.

The values above are taken from US11414449B2, “Hydrated and anhydrous polymorphs of 2′-O- fucosyllactose and their production methods” (BASF SE, priority 2012, dated 2022).
